Laboratory results published in patent US20260337125A1, “RADIOLABELED TYROSINE DERIVATIVE AND APPLICATION THEREOF” (Osaka University, priority 2022, published 2026).

Tests used:
[1] = TLC analysis of stability after purification; assay type: physicochemical; details: 24 hours after purification, in sodium ascorbate aqueous solution (final concentration 1%)
Method: The crude product solution (1 μL) was analyzed by thin-layer chromatography (TLC). The sample was spotted on a thin-layer plate (silica gel 60F254), and a mixed solvent of acetonitrile/water (2/1) was used as a developing solvent. The thin-layer plate was exposed to an imaging plate (BAS IP MS 2025E, GE Healthcare) for about 15 min, and then analyzed by a bioimage analyzer (Tyhoon™ FLA-7000, Cytiva). The results are shown in FIG. 2. ^211At-AAMT-OMe in the crude product solution was detected at Rf 0.80, and the radiochemical yield (RCY) was 81.3%.
(§1) The crude product solution was injected into an HLB column (Oasis, WAT-186005125) equilibrated with sterile distilled water (1 mL) to capture the target product in the cartridge, and sterile distilled water was passed through the cartridge to elute impurities. Next, 30% ethanol solution (500 μL) was passed through the cartridge to elute the target product into sodium ascorbate aqueous solution (500 μL, final concentration 1%), thus obtaining the purified product. The radiochemical yield and radiochemical purity of the purified product were 81% and 98%, respectively.
Before purification, immediately after production, 3 hours after production, and 24 hours after production, ^211At-AAMT-OMe was analyzed by thin-layer chromatography (TLC) in the same manner as described above.
as §1, with “product. This purified product was analyzed by thin-layer chromatography (TLC) in the same manner as described above.” for “product.”, “79.6%” for “81%”, “99.9%,” for “98%,”
24 hours after production, (R)-^211At-AAMT-OMe was analyzed by thin-layer chromatography (TLC) in the same manner as described above.
as §1, with “product. This purified product was analyzed by thin-layer chromatography (TLC) in the same manner as described above.” for “product.”, “75.9%” for “81%”, “99.27%,” for “98%,”
24 hours after production, ^211At-AAMT-OEt was analyzed by thin-layer chromatography (TLC) in the same manner as described above.
The crude product solution was injected into an HLB column (Oasis, WAT-186005125) equilibrated with sterile distilled water (1 mL) to capture the target product in the cartridge, and sterile distilled water was passed through the cartridge to elute impurities. […] This purified product was analyzed by thin-layer chromatography (TLC) in the same manner as described above. […]
24 hours after production, ^211At-AAMT-OPr was analyzed by thin-layer chromatography (TLC) in the same manner as described above. […]

HEK293-hLAT1 = HEK293-hLAT1 (Homo sapiens, UniProt Q01650); assay: Cellular uptake test (Using HEK293); assay type: cell-based
Method: • Cells to be Used: HEK293-Mock, HEK293-hLAT1, HEK293-hLAT2 (HEK293: Human Embryonic Kidney cells 293) • Culture medium to be used: E-MEM (containing 10% FBS, 1% P/S, 1% NEAA)
Two days before a test day, a cell suspension was prepared in such a manner that the concentration of predetermined cells was 1×10^5 cells/mL. The cell suspension was seeded in a 24-well multiculture plate at a volume of 0.5 mL per well. On the day of the test, cultures were confirmed to be subconfluent (which refers to a state where 70-80% of the well is covered in density). The cells were washed twice with warmed PBS(-) Buffer (166-23555, FUJIFILM Wako Pure Chemical Corporation), the culture medium was replaced with HBSS(-) Buffer (085-09355, FUJIFILM Wako Pure Chemical Corporation), and the plate was left to stand in an incubator (MINIcell-35, WakenBtech Co., Ltd) until an RI addition test.
^211At-AAMT-OMe or ^211At-AAMT was added to the prepared cells at 10 μL/well. BCH (LAT1 inhibitor, 20 mM) or unlabeled AMT (α-methyl tyrosine, 1 μg/mL) was previously (15 minutes before) added ([…]). The cells were cultured (CO2 5%, 37 °C), and after 30 minutes, the liquid was removed by suction using an aspirator. The cells were washed twice with PBS(-). The cells were lysed by adding 0.1N NaOH to obtain a lysate, and the radioactivity of the lysate was measured using a γ counter. After the radioactivity measurement, the lysate was loaded into a 96-well plate at a volume of 10 μL per well, the protein amount was measured by the BCA method, and the number of cells was corrected based on the protein amount. Absorbance was measured by MultiScanFC (Thermo Fisher). The uptake level of ^211At-AAMT-OMe or ^211At-AAMT into the cells (number of radioactivity counts/protein amount) was calculated.

[2] = system: human pancreatic cancer cell line (PANC1); assay: Imaging of mice subcutaneously transplanted with human pancreatic cancer cell line PANC1; assay type: in vivo, human (PANC1) in Balb/c-nu/nu mice; details: 2 hours after administration, 0.5 MBq/0.2 mL per mouse, tail vein
Description: Immunodeficient mice (Balb/c-nu/nu, 5-week-old, male) were habituated for 1 week and then subcutaneously transplanted with a human pancreatic cancer cell line (PANC1, 1×10^7 cells/mouse). After the transplantation, the mice were observed over time until tumor reached a size large enough for imaging (about 1000 mm^3). […] Two hours after administration, the mice were anesthetized by isoflurane inhalation, and planar images were taken using a γ camera (E-cam, Siemens).

[3] = system: human pancreatic cancer cell line (PANC1); assay: Therapeutic test on PANC1 subcutaneously transplanted mice (28 days); assay type: in vivo, human (PANC1) in Balb/c-nu/nu mice; details: 1 MBq/0.2 mL per mouse, tail vein
Description: Twenty-eight days after administration, the mice were euthanized and subjected to autopsy, and tumor masses were isolated after organs were examined for abnormalities.

[4] = system: CDDP-resistant A549 (A549 CDDP-r); details: A549 CDDP-r tumor weight 30 days after administration, 0.5 MBq/0.2 mL per mouse, tail vein
Method: (§2) Thirty days after administration, the mice were euthanized and tumor masses were isolated. After fat tissue and the like were trimmed off, the wet weights of the isolated tumor masses were measured to make a histogram.

[5] = system: Gem-resistant PANC1 (PANC1 Gem-r); details: in vivo
Method: as §2

Sequence of HEK293-hLAT1 (Q01650 whole entry): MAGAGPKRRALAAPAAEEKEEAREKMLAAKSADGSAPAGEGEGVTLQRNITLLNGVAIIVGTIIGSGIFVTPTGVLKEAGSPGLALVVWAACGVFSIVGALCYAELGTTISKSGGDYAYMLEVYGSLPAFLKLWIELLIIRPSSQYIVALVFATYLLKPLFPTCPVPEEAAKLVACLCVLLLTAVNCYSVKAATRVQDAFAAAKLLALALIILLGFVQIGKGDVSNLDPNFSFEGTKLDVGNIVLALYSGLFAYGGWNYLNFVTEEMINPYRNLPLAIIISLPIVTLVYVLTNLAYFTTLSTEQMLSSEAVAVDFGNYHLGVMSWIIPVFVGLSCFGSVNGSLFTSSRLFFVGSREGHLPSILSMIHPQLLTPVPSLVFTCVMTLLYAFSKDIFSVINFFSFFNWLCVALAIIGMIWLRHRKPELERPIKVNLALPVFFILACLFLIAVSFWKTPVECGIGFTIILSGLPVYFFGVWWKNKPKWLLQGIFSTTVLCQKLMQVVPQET
Sequence of HEK293-hLAT1 (P08195 102-630 partner): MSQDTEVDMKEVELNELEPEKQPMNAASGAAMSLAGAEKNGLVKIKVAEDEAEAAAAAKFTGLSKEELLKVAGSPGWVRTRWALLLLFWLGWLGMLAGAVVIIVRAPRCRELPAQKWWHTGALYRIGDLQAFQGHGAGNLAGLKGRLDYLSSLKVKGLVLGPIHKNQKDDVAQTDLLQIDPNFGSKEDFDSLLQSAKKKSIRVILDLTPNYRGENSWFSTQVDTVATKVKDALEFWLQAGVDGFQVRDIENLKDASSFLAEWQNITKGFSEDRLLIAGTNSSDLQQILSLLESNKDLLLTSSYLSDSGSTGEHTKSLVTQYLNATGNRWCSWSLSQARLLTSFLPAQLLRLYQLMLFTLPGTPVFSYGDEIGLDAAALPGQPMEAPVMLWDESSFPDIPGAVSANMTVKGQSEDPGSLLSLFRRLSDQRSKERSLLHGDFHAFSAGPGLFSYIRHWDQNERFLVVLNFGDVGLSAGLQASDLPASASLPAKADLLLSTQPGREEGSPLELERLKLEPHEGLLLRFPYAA

For `COc1ccc(C[C@](C)(N)C(=O)O)cc1[At]` [^211At-AAMT-OMe, (S)-3-astato(^211At)-O-methyl-α-methyltyrosine], the “decomposition by TLC” value [1] was “no decomposition”, the “uptake level into cells (number of radioactivity counts/protein amount)” value (HEK293-hLAT1; HEK293-hLAT1 cells (CTL), 30 minutes, 37 °C) was “strongly taken up into HEK293-hLAT1 cells (CTL), comparable to ^211At-AAMT” and the specificity of uptake (HEK293-hLAT1; HEK293-hLAT1 cells, without and with BCH or AMT) was “specifically taken up into HEK293-hLAT1 cells”. The “accumulation in tumor site (planar γ camera image)” value [2] was “accumulated in the tumor sites, with a larger amount of ^211At-AAMT-OMe remaining in the tumor”, the anti-tumor effect ([3]; 28 days after administration) was “slightly higher than that of ^211At-AAMT” and the tumor size ([3]; 28 days after administration) was “slightly smaller than that of the ^211At-AAMT administration group”. The mouse body weight ([3]; up to 28 days after administration) was “tends to slightly reduce, but the body weight reduction is significantly smaller than that of the control group, and is therefore not at a level regarded as a side effect”, the anti-tumor effect [4] was “higher than that of ^211At-AAMT on CDDP-resistant A549” and the anti-tumor effect [5] was “higher on Gem-resistant PANC1 (PANC1 Gem-r) than on PANC1”. The “tumor growth inhibiting effect” value [5] was “higher tumor growth inhibiting effect on the gemcitabine-resistant PANC1 cells”.
